In US20110040086A1, “Novel Beta-Lactam Antibiotics, Methods for Their Production, and Their Use” (DRITTE PATENTPORTFOLIO BETEILIGUNGSGESELLSCHAFT MB, priority 2007, published 2011):

Tests used:
[1] = system: S. aureus North Germany strain; assay: agar diffusion test (Test System II, multi-resistant germs); type: cell-based, Staphylococcus aureus; design: key: r = resistant (no detectable zone of inhibition)
Procedure, shortened: (§1)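 Discs loaded with 10, 50 or 100 μg compound (dissolved in methanol or distilled water) placed on Müller-Hinton agar II inoculated with McFarland 0.5 suspension. Incubated 18-20 h at 37 °C. Inhibition zone diameter read as activity.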

S. aureus 36881 = assay: as above; type: cell-based, Staphylococcus aureus; design: key: r = resistant (no detectable zone of inhibition)
Procedure, shortened: as §1

S. aureus 520 = assay: as above; type: cell-based, Staphylococcus aureus; design: key: r = resistant (no detectable zone of inhibition)
Procedure, shortened: as §1

S. aureus ATCC 6538 = assay: as above; type: cell-based, Staphylococcus aureus
Procedure, shortened: as §1

S. aureus 38418 = assay: as above; type: cell-based, Staphylococcus aureus
Procedure, shortened: as §1

[2] = system: Staphylococcus aureus 315; assay: as above; type: cell-based; design: key: r = resistant (no detectable zone of inhibition)
Procedure, shortened: as §1

[3] = system: Enterococcus faecalis 769; assay: as above; type: cell-based; design: key: r = resistant (no detectable zone of inhibition)
Procedure, shortened: as §1

S. epidermidis 125 = assay: as above; type: cell-based, Staphylococcus epidermidis
Procedure, shortened: as §1

[4] = system: Staphylococcus aureus ATCC 6538; assay: mouse infected with Staphylococcus aureus infection model (survival); type: in vivo, BALB/c mice; conditions: 2 × 0.5 mg (25 mg/kg) i.p.
Experimental: Method for Effectiveness In Vivo with the Mouse Infected with Staphylococcus aureus Model
On Day 0, at least 3 BALB/c mice per test substance (Table 8) or controls are pretreated with cyclophosphamide (250 mg/kg) in 250 μl PBS inta peritoneal (i.p.).
On Day 2, the animals again received 100 mg/kg i.p.
On Day 2, a colony of the test germ is transferred from a growing agar plate (Müller-Hinton-Agar, Beckton Dickinson) into a flask with 10 ml CASO broth (CASO-B., Soyabean peptone-Casein peptone broth, SIFIN, 30 g/l) and is cultivated overnight at 37° C. and a shaking frequency of 250 rpm.
On Day 3, the pre-culture (Vk) is diluted 1:50 with CASO-B and further cultivated ca. 2 hours until an extinction in the medium of 0.6 at a wavelength of 550 nm is reached. Then, it is grown 1× with PBS at room temperature and set again to an extinction of 0.6.
At least 3 animals for a test substance or controls are infected with 10 μl/g body weight grown germs of a bacteria suspension with the extinction 0.6 (ca. 10^10-10^12 CFU, Colony forming units) i.p.
After 30 minutes, antibiotic solution is injected into the mice in a volume of 200 μl PBS with 3% DMSO i.p. 6 hours later, the second antibiotic injection is performed at the same concentration. […]

[5] = logP value by HPLC according to Donovan et al.
Experimental: • Operating temperature 18-24° C. • Flow 1.5 mL/min • Linear gradient (methanol/0.1% phosphoric acid pH 2) from 10% to 100% methanol in 9.4 min, equilibrium time between 2 runs 6 min
ca. 0.5 mg of analyte is added to 0.5 ml of a standard solution (440 mg methyl phenyl sulfonate and 380 μl toluene in 150 mL methanol). 2 μl of this sample solution is injected.
Because the distribution coefficients of the two standards running in each test are known, the distribution coefficient of the analytes can be determined from the relationships of the analyte/standard retention times.

S. epidermidis 847 = assay: agar diffusion test (Test System II, multi-resistant germs); type: cell-based, Staphylococcus epidermidis; design: key: r = resistant (no detectable zone of inhibition)
Procedure, shortened: as §1

B. subtilis AWD 166 = assay: agar diffusion test (antimicrobial effect); type: cell-based, Bacillus subtilis
Procedure, shortened: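 Inhibition zone diameters (mm) read after 20 h incubation at 37 °C. Discs carried 10 μg, 50 μg or 100 μg of test substance, dissolved in methanol or distilled water, on agar inoculated with B. subtilis AWD 166 for dense but separate colonies.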

S. aureus 34289 = assay: agar diffusion test (Test System II, multi-resistant germs); type: cell-based, Staphylococcus aureus; design: key: r = resistant (no detectable zone of inhibition)
Procedure, shortened: as §1

S. aureus 33490 = assay: as above; type: cell-based, Staphylococcus aureus; design: key: r = resistant (no detectable zone of inhibition)
Procedure, shortened: as §1

S. aureus 526 = assay: as above; type: cell-based, Staphylococcus aureus; design: key: r = resistant (no detectable zone of inhibition)
Procedure, shortened: as §1

S. aureus 39105 = assay: as above; type: cell-based, Staphylococcus aureus; design: key: r = resistant (no detectable zone of inhibition)
Procedure, shortened: as §1

[6] = system: Escherichia coli SBUG 1135; assay: agar diffusion test (Test System 1, antimicrobial effect); type: cell-based
Procedure, shortened: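 Disc diffusion: compound at 10 μg, 50 μg, 100 μg on sensi-discs, three per plate of nutrient agar seeded with ~10^6 E. coli SBUG 1135 (overnight culture, 17 h, 37° C, diluted 1:100). After 20 h incubation at 37° C, zone diameter recorded in mm.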

E. faecalis 945 = assay: agar diffusion test (Test System II, multi-resistant germs); type: cell-based, Enterococcus faecalis; design: key: r = resistant (no detectable zone of inhibition)
Procedure, shortened: as §1

[7] = system: Bacillus megaterium SBUG 1152; assay: agar diffusion test (Test System 1, antimicrobial effect); type: cell-based
Procedure, shortened: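 Paper discs loaded with 10 μg, 50 μg or 100 μg of test substance (methanol or water solution) placed on nutrient agar seeded with 10^6 cells of a 17-h B. megaterium culture. After 20 h at 37° C., zone of inhibition measured as diameter in mm.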

S. epidermidis 1071 = assay: agar diffusion test (Test System II, multi-resistant germs); type: cell-based, Staphylococcus epidermidis; design: key: r = resistant (no detectable zone of inhibition)
Procedure, shortened: as §1

S. epidermidis 1068 = assay: as above; type: cell-based, Staphylococcus epidermidis; design: key: r = resistant (no detectable zone of inhibition)
Procedure, shortened: as §1

S. epidermidis 563 = assay: as above; type: cell-based, Staphylococcus epidermidis; design: key: r = resistant (no detectable zone of inhibition)
Procedure, shortened: as §1

Structure (SMILES): O=C(O)C1=C(Cl)CC2C(=O)C(NC(=O)C(NC3=C(C(=O)NCCO)C(=O)C=CC3=O)c3ccccc3)C2N1 (stereo not drawn) [1m, 3-chlorine-7-{2-[2-(2-hydroxyethylcarbamoyl)-3,6-dioxocyclohexa-1,4-dienylamino]-2-phenyl-acetylamino}-8-oxo-5-azabicyclo[4.2.0]oct-3-ene-4-carboxylic acid]
- Diameter of zone of inhibition ([1]; Quantity n 0.018): r
- Diameter of zone of inhibition ([1]; Quantity n 0.092): r
- Diameter of zone of inhibition ([1]; Quantity n 0.18): 12 mm
- Diameter of zone of inhibition (S. aureus 36881; Quantity n 0.018): r
- Diameter of zone of inhibition (S. aureus 36881; Quantity n 0.092): 16 mm
- Diameter of zone of inhibition (S. aureus 36881; Quantity n 0.18): 20 mm
- Diameter of zone of inhibition (S. aureus 520; Quantity n [mol] 0.018): r
- Diameter of zone of inhibition (S. aureus 520; Quantity n [mol] 0.092): r
- Diameter of zone of inhibition (S. aureus 520; Quantity n [mol] 0.18): 8 mm
- Diameter of zone of inhibition (S. aureus ATCC 6538; Quantity n 0.018): 22 mm
- Diameter of zone of inhibition (S. aureus ATCC 6538; Quantity n 0.092): >30 mm
- Diameter of zone of inhibition (S. aureus ATCC 6538; Quantity n 0.18): >30 mm
- Diameter of zone of inhibition (S. aureus 38418; Quantity n [mol] 0.018): 20 mm
- Diameter of zone of inhibition (S. aureus 38418; Quantity n [mol] 0.092): 30 mm
- Diameter of zone of inhibition (S. aureus 38418; Quantity n [mol] 0.18): >30 mm
- Diameter of zone of inhibition ([2]; Quantity n 0.018): r
- Diameter of zone of inhibition ([2]; Quantity n 0.092): r
- Diameter of zone of inhibition ([2]; Quantity n 0.18): 8 mm
- Diameter of zone of inhibition ([3]; Quantity n 0.018): r
- Diameter of zone of inhibition ([3]; Quantity n 0.092): r
- Diameter of zone of inhibition ([3]; Quantity n 0.18): r
- Diameter of zone of inhibition (S. epidermidis 125; Quantity n 0.018): 20 mm
- Diameter of zone of inhibition (S. epidermidis 125; Quantity n 0.092): 26 mm
- Diameter of zone of inhibition (S. epidermidis 125; Quantity n 0.18): 28 mm
- Survival/tested mice n/n [4]: 9/9
- logP value ([5]; HPLC, methanol/0.1% phosphoric acid pH 2): 1.62
- Diameter of zone of inhibition (S. epidermidis 847; Quantity n [mol] 0.018): r
- Diameter of zone of inhibition (S. epidermidis 847; Quantity n [mol] 0.092): 14 mm
- Diameter of zone of inhibition (S. epidermidis 847; Quantity n [mol] 0.18): 18 mm

Structure (SMILES): N[C@@H](C(=O)N[C@@H]1C(=O)N2C(C(=O)O)=C(Cl)CS[C@H]12)c1ccccc1 [2c, Cefaclor, reference compound]
- Diameter of zone of inhibition (B. subtilis AWD 166; Quantity n 0.019): 36 mm
- Diameter of zone of inhibition (B. subtilis AWD 166; Quantity n 0.1): 38 mm
- Diameter of zone of inhibition (B. subtilis AWD 166; Quantity n 0.19): 40 mm
- Diameter of zone of inhibition (S. aureus 34289; Quantity n [mol] 0.019): r
- Diameter of zone of inhibition (S. aureus 34289; Quantity n [mol] 0.1): r
- Diameter of zone of inhibition (S. aureus 34289; Quantity n [mol] 0.19): 10 mm
- Diameter of zone of inhibition (S. aureus 33490; Quantity n [μmol] 0.019): 24 mm
- Diameter of zone of inhibition (S. aureus 33490; Quantity n [μmol] 0.1): 30 mm
- Diameter of zone of inhibition (S. aureus 33490; Quantity n [μmol] 0.19): 32 mm
- Diameter of zone of inhibition (S. aureus 526; Quantity n 0.019): r
- Diameter of zone of inhibition (S. aureus 526; Quantity n 0.1): 8 mm
- Diameter of zone of inhibition (S. aureus 526; Quantity n 0.19): 12 mm
- Diameter of zone of inhibition (S. aureus 39105; Quantity n 0.019): 22 mm
- Diameter of zone of inhibition (S. aureus 39105; Quantity n 0.1): 24 mm
- Diameter of zone of inhibition (S. aureus 39105; Quantity n 0.19): 28 mm
- Diameter of zone of inhibition ([1]; Quantity n 0.019): r
- Diameter of zone of inhibition ([1]; Quantity n 0.1): 10 mm
- Diameter of zone of inhibition ([1]; Quantity n 0.19): 14 mm
- Diameter of zone of inhibition (S. aureus 36881; Quantity n 0.019): r
- Diameter of zone of inhibition (S. aureus 36881; Quantity n 0.1): 12 mm
- Diameter of zone of inhibition (S. aureus 36881; Quantity n 0.19): 18 mm
- Diameter of zone of inhibition (S. aureus 520; Quantity n [mol] 0.019): r
- Diameter of zone of inhibition (S. aureus 520; Quantity n [mol] 0.1): 10 mm
- Diameter of zone of inhibition (S. aureus 520; Quantity n [mol] 0.19): 14 mm
- Diameter of zone of inhibition (S. aureus ATCC 6538; Quantity n 0.019): 30 mm
- Diameter of zone of inhibition (S. aureus ATCC 6538; Quantity n 0.1): 38 mm
- Diameter of zone of inhibition (S. aureus ATCC 6538; Quantity n 0.19): 40 mm
- Diameter of zone of inhibition (S. aureus 38418; Quantity n [mol] 0.019): 26 mm
- Diameter of zone of inhibition (S. aureus 38418; Quantity n [mol] 0.1): 34 mm
- Diameter of zone of inhibition (S. aureus 38418; Quantity n [mol] 0.19): 38 mm
- Diameter of zone of inhibition ([6]; Quantity n 0.019): 24 mm
- Diameter of zone of inhibition ([6]; Quantity n 0.1): 30 mm
- Diameter of zone of inhibition ([6]; Quantity n 0.19): 32 mm
- Diameter of zone of inhibition ([2]; Quantity n 0.019): r
- Diameter of zone of inhibition ([2]; Quantity n 0.1): 10 mm
- Diameter of zone of inhibition ([2]; Quantity n 0.19): 12 mm
- Diameter of zone of inhibition ([3]; Quantity n 0.019): r^2
- Diameter of zone of inhibition ([3]; Quantity n 0.1): 8 mm
- Diameter of zone of inhibition ([3]; Quantity n 0.19): 14 mm
- Diameter of zone of inhibition (S. epidermidis 125; Quantity n 0.019): 26 mm
- Diameter of zone of inhibition (S. epidermidis 125; Quantity n 0.1): 34 mm
- Diameter of zone of inhibition (S. epidermidis 125; Quantity n 0.19): 36 mm
- Diameter of zone of inhibition (E. faecalis 945; Quantity n 0.019): r
- Diameter of zone of inhibition (E. faecalis 945; Quantity n 0.1): 8 mm
- Diameter of zone of inhibition (E. faecalis 945; Quantity n 0.19): 12 mm
- Diameter of zone of inhibition ([7]; Quantity n 0.019): 36^1 mm
- Diameter of zone of inhibition ([7]; Quantity n 0.1): 38 mm
- Diameter of zone of inhibition ([7]; Quantity n 0.19): 40 mm
- chromatographic logP ([5]; HPLC with methanol/0.1% phosphoric acid gradient, pH 2): -3.28
- Diameter of zone of inhibition (S. epidermidis 1071; Quantity n 0.019): 28 mm
- Diameter of zone of inhibition (S. epidermidis 1071; Quantity n 0.1): 30 mm
- Diameter of zone of inhibition (S. epidermidis 1071; Quantity n 0.19): 32 mm
- Diameter of zone of inhibition (S. epidermidis 847; Quantity n [mol] 0.019): 14 mm
- Diameter of zone of inhibition (S. epidermidis 847; Quantity n [mol] 0.1): 24 mm
- Diameter of zone of inhibition (S. epidermidis 847; Quantity n [mol] 0.19): 28 mm
- Diameter of zone of inhibition (S. epidermidis 1068; Quantity n 0.019): 22 mm
- Diameter of zone of inhibition (S. epidermidis 1068; Quantity n 0.1): 24 mm
- Diameter of zone of inhibition (S. epidermidis 1068; Quantity n 0.19): 30 mm
- Diameter of zone of inhibition (S. epidermidis 563; Quantity n 0.019): 30 mm
- Diameter of zone of inhibition (S. epidermidis 563; Quantity n 0.1): 34 mm
- Diameter of zone of inhibition (S. epidermidis 563; Quantity n 0.19): 36 mm
